Test results as given in patent US9302999B2, “Substituted triazoles as herbicides” (E. I. DU PONT DE NEMOURS AND COMPANY, priority 2012, dated 2016).

Key:
Type in all cases: in vivo
[1] = system: barnyardgrass (Echinochloa crus-galli); test: Test C flooded paddy test: barnyardgrass; settings: Echinochloa crus-galli, scale 0 to 100 (0 no effect, 100 complete control), read-out: Plant response rating, Barnyardgrass
Outline: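 2-leaf stage plants; pots flooded 3 cm above soil; compound applied into paddy water, depth maintained. Greenhouse 13–15 d. Visual rating vs controls, 0–100 (0 = no effect, 100 = complete control); dash = no result.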

[2] = system: foxtail, green (green foxtail, Setaria viridis); test: Test C pre-/postemergence: foxtail, green
Outline: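 Visual injury scored 0–100 (100 = complete control) against untreated controls after 13–15 greenhouse days. Surfactant-containing solvent formulations applied either to soil after sowing (loam/sand) or over 1- to 4-leaf plants, 2–18 cm tall.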

[3] = system: windgrass (Apera spica-venti); test: Test D pre-/postemergence: windgrass
Outline: (§1)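 Visual ratings from 0 (no effect) to 100 (complete control) were made 14–21 days after treatment, relative to controls. Applications were preemergence to seeds in silt loam, or postemergence to 2–18 cm (1–4 leaf) plants in peat-based medium. Compounds were formulated in a surfactant-containing non-phytotoxic solvent.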

[4] = system: oilseed rape (Brassica napus); test: Test D pre-/postemergence: oilseed rape
Outline: as §1

[5] = system: bluegrass (annual bluegrass, Poa annua); test: Test D pre-/postemergence: bluegrass
Outline: as §1

[6] = system: bromegrass, downy (downy bromegrass, Bromus tectorum); test: Test D pre-/postemergence: bromegrass, downy
Outline: as §1

[7] = system: barley, winter (winter barley, Hordeum vulgare); test: Test D pre-/postemergence: barley, winter
Outline: as §1

[8] = system: field poppy (Papaver rhoeas); test: Test D pre-/postemergence: field poppy
Outline: as §1

[9] = Postemergence, 31 g ai/ha, scale 0 to 100 (0 no effect, 100 complete control)
[10] = Postemergence, 62 g ai/ha, scale 0 to 100 (0 no effect, 100 complete control)
[11] = Postemergence, 125 g ai/ha, scale 0 to 100, 0 no effect, 100 complete control
[12] = Postemergence, 250 g ai/ha, scale 0 to 100 (0 no effect, 100 complete control)
[13] = Postemergence, 16 g ai/ha, scale 0 to 100
[14] = Preemergence, 16 g ai/ha, scale 0 to 100 (0 no effect, 100 complete control)
[15] = Preemergence, 31 g ai/ha, scale 0 to 100 (0 no effect, 100 complete control)
[16] = Preemergence, 62 g ai/ha, scale 0 to 100
[17] = Preemergence, 125 g ai/ha, scale 0 to 100
[18] = Preemergence, 250 g ai/ha, scale 0 to 100

`Cc1nn(-c2ccc(F)cc2)nc1Oc1ccnc(C(F)(F)F)c1` [Compound 129, 4-[[2-(4-fluorophenyl)-5-methyl-2H-1,2,3-triazol-4-yl]oxy]-2-(trifluoromethyl)pyridine] was tested, and the pest or weed control at 125 g/ha ([1]; Flood (flooded paddy test), 125 g ai/ha, visual rating after 13 to 15 days) was 80%, the pest or weed control at 250 g/ha ([1]; Flood (flooded paddy test), 250 g ai/ha, visual rating after 13 to 15 days) was 85% and the pest or weed control at 31 g/ha ([1]; Flood, 31 g ai/ha) was 55%. For the same compound, the pest or weed control at 62 g/ha ([1]; Flood, 62 g ai/ha) was 75%, the “Plant response rating, Foxtail, Green” value [2, 9] was 85 and the “Plant response rating, Foxtail, Green” value [2, 10] was 95. The “Plant response rating, Foxtail, Green” value [2, 11] was 95, the “Plant response rating, Foxtail, Green” value ([2]; Postemergence, 250 g ai/ha, scale 0 to 100) was 95 and the “Plant response rating, Foxtail, Green” value ([2]; Preemergence, 31 g ai/ha, scale of 0 to 100, 0 is no effect, 100 is complete control) was 90. For the same compound, the “Plant response rating, Foxtail, Green” value ([2]; Preemergence, 62 g ai/ha, scale of 0 to 100, 0 is no effect, 100 is complete control) was 90, the “Plant response rating, Foxtail, Green” value ([2]; Preemergence, 125 g ai/ha, scale 0 to 100, 0 no effect, 100 complete control) was 90 and the “Plant response rating, Foxtail, Green” value ([2]; Preemergence, 250 g ai/ha, scale 0 to 100, 0 no effect, 100 complete control) was 90. For the same compound, the “Plant response rating: Windgrass” value [3, 9] was 20, the “Plant response rating: Windgrass” value [3, 10] was 30 and the “Plant response rating: Windgrass” value [3, 11] was 70. The “Plant response rating: Windgrass” value [3, 12] was 95, the “Plant response rating, Windgrass” value [3, 13] was 15 and the “Plant response rating, Windgrass” value [3, 14] was 0. The “Plant response rating, Windgrass” value [3, 15] was 0, the “Plant response rating, Windgrass” value [3, 16] was 10 and the “Plant response rating, Windgrass” value [3, 17] was 75. For the same compound, the “Plant response rating, Windgrass” value [3, 18] was 100, the “Plant response rating: Oilseed Rape” value [4, 9] was 80 and the “Plant response rating: Oilseed Rape” value [4, 10] was 95. The “Plant response rating: Oilseed Rape” value [4, 11] was 100, the “Plant response rating: Oilseed Rape” value [4, 12] was 100 and the “Plant response rating, Oilseed Rape” value [4, 13] was 80. For the same compound, the “Plant response rating, Oilseed Rape” value [4, 14] was 0, the “Plant response rating, Oilseed Rape” value [4, 15] was 0 and the “Plant response rating, Oilseed Rape” value [4, 16] was 10. For the same compound, the “Plant response rating, Oilseed Rape” value [4, 17] was 30, the “Plant response rating, Oilseed Rape” value [4, 18] was 60 and the “Plant response rating: Bluegrass” value [5, 9] was 10. The “Plant response rating: Bluegrass” value [5, 10] was 20, the “Plant response rating: Bluegrass” value [5, 11] was 60 and the “Plant response rating: Bluegrass” value [5, 12] was 70. For the same compound, the “Plant response rating, Bluegrass” value [5, 13] was 10, the “Plant response rating, Bluegrass” value [5, 14] was 0 and the “Plant response rating, Bluegrass” value [5, 15] was 0. The “Plant response rating, Bluegrass” value [5, 16] was 85, the “Plant response rating, Bluegrass” value [5, 17] was 100 and the “Plant response rating, Bluegrass” value [5, 18] was 100. For the same compound, the “Plant response rating: Bromegrass, Downy” value [6, 9] was 10, the “Plant response rating: Bromegrass, Downy” value [6, 10] was 20 and the “Plant response rating: Bromegrass, Downy” value [6, 11] was 30. The “Plant response rating: Bromegrass, Downy” value [6, 12] was 30, the “Plant response rating, Bromegrass, Downy” value [6, 13] was 10 and the “Plant response rating, Bromegrass, Downy” value [6, 14] was 0. For the same compound, the “Plant response rating, Bromegrass, Downy” value [6, 15] was 10, the “Plant response rating, Bromegrass, Downy” value [6, 16] was 10 and the “Plant response rating, Bromegrass, Downy” value [6, 17] was 20. For the same compound, the “Plant response rating, Bromegrass, Downy” value [6, 18] was 30, the “Plant response rating: Barley, Winter” value [7, 9] was 5 and the “Plant response rating: Barley, Winter” value [7, 10] was 10. For the same compound, the “Plant response rating: Barley, Winter” value [7, 11] was 15, the “Plant response rating: Barley, Winter” value [7, 12] was 30 and the “Plant response rating, Barley, Winter” value [7, 13] was 5. The “Plant response rating, Barley, Winter” value [7, 14] was 0, the “Plant response rating, Barley, Winter” value [7, 15] was 0 and the “Plant response rating, Barley, Winter” value [7, 16] was 0. The “Plant response rating, Barley, Winter” value [7, 17] was 10, the “Plant response rating, Barley, Winter” value [7, 18] was 15 and the “Plant response rating: Field Poppy” value [8, 9] was 100. For the same compound, the “Plant response rating: Field Poppy” value [8, 10] was 100, the “Plant response rating: Field Poppy” value [8, 11] was 100 and the “Plant response rating: Field Poppy” value [8, 12] was 85. For the same compound, the “Plant response rating, Field Poppy” value [8, 13] was 100, the “Plant response rating, Field Poppy” value [8, 14] was 0 and the “Plant response rating, Field Poppy” value [8, 15] was 75. The “Plant response rating, Field Poppy” value [8, 16] was 70, the “Plant response rating, Field Poppy” value [8, 17] was 100 and the “Plant response rating, Field Poppy” value [8, 18] was 100.
